Measured values published in patent US20250171428A1, “CRYSTALLINE FORMS OF 6-((5-METHYL-3-(6-METHYLPYRIDIN-3-YL)ISOXAZOL-4- YL)METHOXY)- N -(TETRAHYDRAPYRAN-4-YL)PYRIDAZINE-3-CARBOXAMIDE” (Hoffmann-La Roche Inc., priority 2022, published 2025).

Key:
Format in all cases: physicochemical
[1] = Competing long-term slurry equilibration experiments including Form A and Form B; settings: competing slurries of Form A and Form B, various solvents, 5° C. to 65° C.; all conditions tested
Description: The competing long-term slurry equilibration experiments including Form A and Form B were performed in various solvents in the temperature range from 5° C. to 65° C.

[2] = Transformation of Form 4 at elevated temperature; settings: temperatures >110° C.
[3] = Slurry of Form 4 in various solvents and solvent/water mixtures; settings: 20° C. to 60° C.

| Structure (SMILES) | stability of the crystalline form [1] | solid form transformation on heating [2] | solid form transformation in slurry [3] |
| --- | --- | --- | --- |
| Cc1ccc(-c2noc(C)c2COc2ccc(C(=O)NC3CCOCC3)nn2)cn1 [Form B, 6-((5-methyl-3-(6-methylpyridin-3-yl)isoxazol-4-yl)methoxy)-N-(tetrahydropyran-4-yl)pyridazine-3-carboxamide] | superior stability | – | – |
| Cc1ccc(-c2noc(C)c2COc2ccc(C(=O)NC3CCOCC3)nn2)cn1 [Form 4, 6-((5-methyl-3-(6-methylpyridin-3-yl)isoxazol-4-yl)methoxy)-N-(tetrahydropyran-4-yl)pyridazine-3-carboxamide] | – | transform to Form A | transform to Form B |
